# Source: US20260347372A1, “SMALL MOLECULE INHIBITORS OF KRAS G12D MUTANT” (MERCK SHARP & DOHME LLC, priority 2023, published 2026)
# What was measured:
# KRAS G12V = KRAS G12V (Homo sapiens, UniProt P01116, G12V); test: SOS-catalyzed nucleotide exchange assay, KRAS G12V (Procedure A); type: biochemical; conditions: GNE
# Summary of the method: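 Biotinylated KRAS G12V was loaded with Bodipy-GDP alongside Terbium-streptavidin to form a TR-FRET complex, which was preincubated with compounds for 60 minutes in 384-well plates. Human SOS protein and unlabeled GTP were then added for 90 minutes, giving final concentrations of 1.25 nM KRAS-G12V, 160 nM SOS and 3 mM GTP. The 520/495 nm emission ratio was read on an Envision.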
# AsPC-1 cells = biological target: T1, AsPC-1 cells (Homo sapiens, UniProt P01116, G12D); test: Cellular phospho-ERK assay, AsPC-1 cells (KRAS G12D); type: cell-based; conditions: 2 hours, read-out: AsPC1 pERK IC50
# T1 construct: p-ERK/total ERK AlphaSureFire read-out
# Summary of the method: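 Compound was titrated 10-point in 3-fold steps (top 30 μM) on KRAS G12D homozygous pancreatic lines PANC08.13 and AsPC-1 for 2 h at 37 °C. The p-ERK/total ERK ratio was measured by multiplex AlphaLISA SureFire and fitted with a 4-parameter logistic model to give IC50.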
# KRAS G12D = KRAS G12D (Homo sapiens, UniProt P01116, G12D); test: SOS-catalyzed nucleotide exchange assay, KRAS G12D (Procedure A); type: biochemical; conditions: guanine nucleotide exchange (GNE)
# Summary of the method: (§1)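 Compounds in 10-point 3-fold series sat 60 min with biotin-KRAS/Bodipy-GDP/Tb-streptavidin complex, then human SOS and 3 mM GTP were added. G13D: 1.25 nM KRAS, no SOS, 30 min. WT and G12D: 1 nM with 40 nM SOS, 60 min. G12C (C51S/C80L/C118S): 3 nM/40 nM, 60 min. Curves fitted from normalised TR-FRET 520/495 ratio.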
# KRAS WT = KRAS WT (Homo sapiens, UniProt P01116); test: SOS-catalyzed nucleotide exchange assay, KRAS WT (Procedure A); type: biochemical; conditions: GNE
# Summary of the method: as §1
# Chain of KRAS G12V (P01116 with tags, fused parts or gaps isoform P01116-2 G12V): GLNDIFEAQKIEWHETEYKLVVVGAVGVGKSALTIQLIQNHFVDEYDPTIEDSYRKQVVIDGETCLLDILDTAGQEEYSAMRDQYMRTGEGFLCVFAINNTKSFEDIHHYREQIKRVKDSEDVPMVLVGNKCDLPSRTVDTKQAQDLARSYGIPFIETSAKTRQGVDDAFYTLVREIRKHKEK
# Chain of KRAS G12D (P01116 with tags, fused parts or gaps isoform P01116-2 G12D): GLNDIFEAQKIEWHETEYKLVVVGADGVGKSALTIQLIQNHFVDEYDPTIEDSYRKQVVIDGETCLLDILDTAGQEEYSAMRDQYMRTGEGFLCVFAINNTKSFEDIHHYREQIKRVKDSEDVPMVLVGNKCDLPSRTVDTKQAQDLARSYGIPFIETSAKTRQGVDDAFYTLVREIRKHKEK
# Chain of KRAS WT (P01116 with tags, fused parts or gaps isoform P01116-2): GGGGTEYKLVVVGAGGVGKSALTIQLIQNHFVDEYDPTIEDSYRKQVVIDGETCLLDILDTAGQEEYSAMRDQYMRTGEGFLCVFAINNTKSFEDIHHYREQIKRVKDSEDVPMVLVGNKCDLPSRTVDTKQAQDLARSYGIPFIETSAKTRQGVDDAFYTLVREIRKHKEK
# T1 sequence (P01116 1-188 isoform P01116-2 G12D): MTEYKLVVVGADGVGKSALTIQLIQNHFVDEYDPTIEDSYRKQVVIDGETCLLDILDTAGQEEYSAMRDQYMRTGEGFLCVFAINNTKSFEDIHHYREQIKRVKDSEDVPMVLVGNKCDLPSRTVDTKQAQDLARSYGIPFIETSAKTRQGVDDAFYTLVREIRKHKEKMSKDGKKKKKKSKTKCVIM
IC50 (KRAS G12V),IC50 (AsPC-1 cells),IC50 (KRAS G12D),IC50 (KRAS WT),Structure (SMILES)
631 nM,48.4 nM,1.94 nM,399 nM,"C#Cc1c(F)ccc2cc3[nH]ncc3c(-c3nccc4c3sc3nc(OC[C@]5(CN6CC7(CCOC7)C6)CC5(F)F)nc(N5C[C@H]6CC[C@@H](C5)N6)c34)c12 [Ex-104, 2-(((1R)-1-(((4-((1R,5S)-3,8-diazabicyclo[3.2.1]octan-3-yl)-8-(5-ethynyl-6-fluoro-1H-benzo[f]indazol-4-yl)pyrido[4′,3′:4,5]thie-no[2,3-d]pyrimidin-2-yl)oxy)methyl)-2,2-difluorocyclopropyl)meth-yl)-6-oxa-2-azaspiro[3.4]octane]"
475 nM,67 nM,1.6 nM,279 nM,"C#Cc1c(F)ccc2cc3[nH]ncc3c(-c3nccc4c3sc3nc(OC[C@]5(CN6CCC(CCc7cn(C)nn7)CC6)CC5(F)F)nc(N5C[C@H]6CC[C@@H](C5)N6)c34)c12 [Ex-105, 4-((1R,5S)-3,8-diazabicyclo[3.2.1]octan-3-yl)-2-(((R)-2,2-difluoro-1-((4-(2-(1-methyl-1H-1,2,3-triazol-4-yl)ethyl)piperidin-1-yl)methyl)cyclopropyl)methoxy)-8-(5-ethynyl-6-fluoro-1H-benzo[f]indazol-4-yl)pyrido[4′,3′:4,5]thie-no[2,3-d]pyrimidine]"
1700 nM,74 nM,2.03 nM,877 nM,"C#Cc1c(F)ccc2cc3[nH]ncc3c(-c3nccc4c3sc3nc(OC[C@]5(CN6CCC7(CC6)CC(Cc6cn(C)nn6)C7)CC5(F)F)nc(N5C[C@H]6CC[C@@H](C5)N6)c34)c12 [Ex-106, 4-((1R,5S)-3,8-diazabicyclo[3.2.1]octan-3-yl)-2-(((R)-2,2-difluoro-1-((2-((1-methyl-1H-1,2,3-triazol-4-yl)methyl)-7-azaspiro[3.5]nonan-7-yl)methyl)cyclopropyl)methoxy)-8-(5-ethynyl-6-fluoro-1H-benzo[f]indazol-4-yl)pyrido[4′,3′:4,5]thie-no[2,3-d]pyrimidine]"
1030 nM,51.8 nM,3.23 nM,800 nM,"C#Cc1c(F)ccc2cc3[nH]ncc3c(-c3nccc4c3sc3nc(OC[C@]5(CN6CCC6)CC5(F)F)nc(N5C[C@H]6CC[C@@H](C5)N6)c34)c12 [Ex-107, 2-(((R)-1-(azetidin-1-ylmethyl)-2,2-difluorocyclopropyl)meth-oxy)-4-((1R,5S)-3,8-diazabicyclo[3.2.1]octan-3-yl)-8-(5-ethynyl-6-fluoro-1H-benzo[f]indazol-4-yl)pyrido[4′,3′:4,5]thie-no[2,3-d]pyrimidine]"
372 nM,16.2 nM,1.62 nM,215 nM,"C#Cc1c(F)ccc2cc3[nH]ncc3c(-c3nccc4c3sc3nc(OC[C@@]56CCCN5C[C@@H](F)C6)nc(N5CC6CCC(C5)N6)c34)c12 [Ex-108, 4-(3,8-diazabicyclo[3.2.1]octan-3-yl)-8-(5-ethynyl-6-fluoro-1H-benzo[f]indazol-4-yl)-2-(((2S,7aS)-2-fluorotetrahydro-1H-pyrrolizin-7a(5H)-yl)methoxy)pyrido[4′, 3′:4,5]thieno[2,3-d]pyrimidine]"
> 11100 nM,1010 nM,25.9 nM,> 11100 nM,"C#Cc1c(F)ccc2cc3[nH]ncc3c(-c3nccc4c3sc3nc(OC[C@]5(CO)CC5(F)F)nc(N5C[C@H]6CC[C@@H](C5)N6)c34)c12 [Ex-109, ((1R)-1-(((4-((1R,5S)-3,8-diazabicyclo[3.2.1]octan-3-yl)-8-(5-ethynyl-6-fluoro-1H-benzo[f]indazol-4-yl)pyrido[4′,3′:4,5]thieno[2,3-d]pyrimidin-2-yl)oxy)methyl)-2,2-difluorocyclopropyl)methanol]"
> 11100 nM,8280 nM,2050 nM,> 11100 nM,"C#Cc1c(F)ccc2cc3[nH]ncc3c(-c3nccc4c3sc3nc(OCC5(C(F)(F)F)CCOCC5)nc(N5C[C@H]6CC[C@@H](C5)N6)c34)c12 [Ex-110, 4-((1R,5S)-3,8-diazabicyclo[3.2.1]octan-3-yl)-8-(5-ethynyl-6-fluoro-1H-benzo[f]indazol-4-yl)-2-((4-(trifluoromethyl)tetrahydro-2H-pyran-4-yl)methoxy)pyrido[4′,3′:4,5]thieno[2,3-d]pyrimidine]"
4400 nM,172 nM,5.43 nM,1720 nM,"C#Cc1c(F)ccc2cc3[nH]ncc3c(-c3nccc4c3sc3nc(OC[C@]5(CN6CCC(COC)CC6)CC5(F)F)nc(N5C[C@H]6CC[C@@H](C5)N6)c34)c12 [Ex-111, 4-((1R,5S)-3,8-diazabicyclo[3.2.1]octan-3-yl)-2-(((R)-2,2-difluoro-1-((4-(methoxymethyl)piperidin-1-yl)methyl)cyclopropyl)methoxy)-8-(5-ethynyl-6-fluoro-1H-benzo[f]indazol-4-yl)pyrido[4′,3′:4,5]thieno[2,3-d]pyrimidine]"
> 11100 nM,14700 nM,6770 nM,> 11100 nM,Cc1cc2[nH]ncc2c(-c2nccc3c2sc2nc(OC[C@@]45CCCN4C[C@H](F)C5)nc(N4[C@@H]5CC[C@H]4CN(CC(C)O)C5)c23)c1C(F)(F)F (stereo partly drawn) [Ex-112]
1850 nM,2380 nM,492 nM,1110 nM,"Cc1cc2[nH]ncc2c(-c2nccc3c2sc2nc(OC[C@@]45CCCN4C[C@H](F)C5)nc(N4C[C@H]5CC[C@@H](C4)N5CC(C)O)c23)c1C(F)(F)F (stereo partly drawn) [Ex-113, 1-((1R,5S)-3-(2-(((2R,7aS)-2-fluorotetrahydro-1H-pyrrolizin-7a(5H)-yl)methoxy)-8-(6-methyl-5-(trifluoromethyl)-1H-indazol-4-yl)pyrido[4′,3′:4,5]thieno[2,3-d]pyrimidin-4-yl)-3,8-diazabicyclo[3.2.1]octan-8-yl)propan-2-ol]"
37.7 nM,97 nM,1.81 nM,36.2 nM,"C#Cc1c(F)ccc2cc3[nH]ncc3c(-c3nccc4c3sc3nc(OC[C@@]56CCCN5C/C(=C\F)C6)nc(N5C[C@@H]6C[C@H](O)[C@H](C5)N6)c34)c12 [Ex-114, (1S,5S,6S)-3-(8-(5-ethynyl-6-fluoro-1H-benzo[f]indazol-4-yl)-2-(((S,Z)-2-(fluoromethylene)tetrahydro-1H-pyrrolizin-7a(5H)-yl)methoxy)pyrido[4′,3′:4,5]thieno[2,3-d]pyrimidin-4-yl)-3,8-diazabicyclo[3.2.1]octan-6-ol]"
> 11100 nM,4880 nM,3200 nM,6270 nM,"FC(F)(F)C1(COc2nc(N3C[C@H]4CC[C@@H](C3)N4)c3c(n2)sc2c(-c4c(C5CC5)c(Cl)cc5[nH]ncc45)nccc23)CCOCC1 [Ex-118, 4-((1R,5S)-3,8-diazabicyclo[3.2.1]octan-3-yl)-8-(6-chloro-5-cyclopropyl-1H-indazol-4-yl)-2-((4-(trifluoromethyl)tetrahydro-2H-pyran-4-yl)methoxy)pyrido[4′,3′:4,5]thieno[2,3-d]pyrimidine]"
